This note sets out measurements from patent US9586993B2, “CD44v6-derived peptides for treating pancreatic cancer” (AMCURE GMBH, priority 2012, dated 2017).

One experiment deals with VEGF. The experiment is described as follows: Human VEGF in cell culture supernatant of L3.6p1 cells (Quantikine immunoassay). Format: cell-based. The settings on record: 200 ng/ml peptide in the culture medium, 5 days. Here is the method:
Determination of human HGF and VEGF levels in cell culture medium of L3.6p1 cells were performed using the Quantikine Human HGF Immunoassay and Quantikine Human VEGF Immunoassay from […]. For this purpose 3×10^6 cells were cultured for 5 days in a 15 cm plate in the presence of the respective peptides as indicated. The supernatant (20 ml) was centrifuged (1200 rpm) and the assay was performed according to manufacturer's instructions.

Another experiment relates to Met. As to the kind of experiment: HGF-induced Met activation in HeLa cells (western blot). Format: cell-based, human. The following applies: HGF 25 ng/ml, peptide 10 minutes before induction. Here is the method: FIG. 12: A: Activation of Met and signal transduction induced by HGF depends on CD44v6 in L3.6p1 cells. L3.6p1 cells were treated with the human v6 peptide (human v6 14mer) or the rat v6 peptide as control prior to induction with 10 ng/ml HGF. Activation of Met and ERK was determined in western blot. The numbers refer to the fold induction. The experiment was repeated at least 5 times. B: Activation of c-Met and signal transduction induced by HGF depends on CD44v6 HeLa cells. Starved HeLa cells respectively HT29 cells were incubated with the v6 peptide (human v6 14mer) or a control peptide for 10 minutes at 37° C. and then induced with 25 ng/ml of HGF for the indicated time points. Cells were then either lysed and the lysates were subjected to Western Blot analysis for phospho-Met and Met. C: Activation of c-Met and signal transduction induced by HGF depends on CD44v6 in HT29 cells. HGF-induced c-Met and Erk phosphorylation in HT29 was determined as described above using phospho-specific antibodies. […]
The contribution of CD44v6 to Met signaling in the human epithelial pancreatic cancer cells L3.6p1 (derived from Colo 357), the cervix carcinoma cells HeLa and the colon cancer cells HT29 were analysed using the CD44v6 peptide (v6 14mer; v6 5mer tested as well, data not shown).
(A western blot detects proteins with antibodies after separation by electrophoresis.)

Another experiment has as its system ErbB receptors. The experiment is described as follows: ErbB ligand-induced Erk-kinase phosphorylation in HT29 cells. It counts as cell-based, human. The following applies: 100 ng/ml peptide; for inhibition of EGF-dependent Erk phosphorylation: 20 ng/ml EGF. The protocol: Serum-starved HT29 cells were pre-incubated for 5 min with 100 ng/ml of a CD44v6-specific peptide (human v6 14mer) or a control peptide. Afterwards the cells were induced with 20 ng/ml of various ErbB ligands as indicated. The cell lysates were resolved by SDS-PAGE. Western-blotting was used to detect ErbB ligands-induced Erk-kinase phosphorylation.
Serum-starved HT29 cells were pre-incubated for 5 min with 100 ng/ml of CD44v6-specific peptide (pep1=14mer, pep2=5mer) or a control peptide. Afterwards the cells were induced with 20 ng/ml of EGF or TGFα and lysed. The cell lysates were resolved by SDS-PAGE. Western-blotting was used to detect EGF and TGFα induced Erk-kinase phosphorylation.
For this purpose HT29 cells were serum-starved for 24 hours and pre-treated with the v6-specific or a control peptide. They were then induced with the indicated ErbB ligands. Erk-kinase phosphorylation was used as a read-out for receptor activation. All ligands could activate the Erk-kinase.

The test system of a further experiment is Erk phosphorylation. The experiment is described as follows: EGF- and TGFα-induced Erk phosphorylation in MCF7 cells. It counts as cell-based, human.
The test system of experiment [1] is L3.6p1 pancreatic carcinoma cells. As to the kind of experiment: Human orthotopic model, L3.6p1 cells in the pancreas of nude mice. It counts as in vivo, mouse. The settings on record: dose reduction experiment, 0.2 to 20 μg per injection three times per week for 3 weeks.

“Also recorded” adds a separate entry of the source.

Take “KEQWFGNRWHEGYR [human 14mer, human CD44v6 14mer peptide]”: the “hVEGF secretion by L3.6p1 cells” value in the experiment on VEGF was “can be blocked”. Also, in the experiment with Met, the “inhibition of HGF-induced activation of Met and Erk” value is “able to prevent activation of Met and of its downstream target Erk”. Further, the “inhibition of EGF-dependent Erk phosphorylation” value in the experiment with ErbB receptors (listed as human v6 14mer) is given as “inhibited”. Moreover, the “inhibition of EGF-dependent Erk phosphorylation” value with ErbB receptors (listed as pep1) is “can be blocked”. Moreover, in the experiment with ErbB receptors (20 ng/ml ER), the “inhibition of ER-dependent Erk phosphorylation” value is “inhibited”. Moreover, the “inhibition of ErbB receptor induction via TGF-α, BC, Her, HB-EGF or AR (Erk phosphorylation)” value in the experiment with ErbB receptors (20 ng/ml ligand) is recorded as “completely independent of CD44v6”. Moreover, in the experiment on Erk phosphorylation, the “Erk phosphorylation upon EGF treatment” value is on record as “blocking of Erk phosphorylation” and the “Erk phosphorylation upon TGFα induction” value is “not upon TGFα induction”. The “size / growth of the primary tumor” value in experiment [1] was “significant decrease of the size of the primary tumor; also recorded: reduces growth of the primary tumor”.
